Data: patent US10335420B2, “Nanoparticle-based tumor-targeted drug delivery” (The Scripps Research Institute, priority 2010, dated 2019)
Like-named read-outs stand apart in the source and are kept apart here.

Columns and labels:
4TO7 tumors = test: 4TO7 tumor growth in mice treated with Leg-NP-CDDO; format: in vivo, BALB/c mice; settings: 8 i.v. injections
Experimental: In vivo tumor studies. 4TO7 (5×10^3) cells or MMTV-Neu (1×10^4) primary tumor cells were injected orthotopically into female BALB/c or FVB/NJ mice, respectively. NPs in 200 μl of PBS (about 1.36×10^13 particles) were administered i.v. and tumor dimensions measured using digital microcalipers. Tumor volume was calculated using the formula [(a^2×b)/2], where ‘a’ is the larger of two perpendicular diameters. For recurrence studies, primary tumors were surgically removed and mice re-challenged orthotopically in the contralateral mammary fat pad. Mice were vaccinated 3 times orally at 1 week intervals by gavage with attenuated salmonella typhimuirum (1×10^8 CFU per mouse) transduced with either pNeuTm (provided by Wei-Zen Wei, Karmanos Cancer Center, Detroit, Mich., USA) or empty vector.
Leg-NP-CDDO suppresses growth of murine breast tumors. To evaluate the in vivo effects of Leg-NP-CDDO, BALB/c mice were orthotopically challenged with about 5×10^3 4TO7 tumor cells and 4 days later, treated them with 8 i.v. injections of Leg-NP-CDDO or controls (FIG. 7A).

4TO7 orthotopic tumors = test: Doxorubicin biodistribution in tumor-bearing mice by fluorescence microscopy; format: in vivo; settings: two i.v. injections, about 24 h after the last injection
Experimental: Doxorubicin was also loaded into RR-11a^− NPs (NP-Dox) as a control. […] Data represent means±s.e.m. The percentage of the drug uptake concentration was determined by comparing the MFI of RDZ-218, NP-Dox, and Free Dox-treated cells with that of serially diluted doxorubicin; see FIG. 2b. […] Data is shown relative to untreated cells (Control); n=3 wells per group. Data represent means±s.e.m. *p<0.05, **p<0.005. 4TO7 cells were injected into the inguinal mammary fat pad of female BALB/c mice. Tumors were allowed to establish for about 5 d, to a size of approximately 500 mm^3, after which mice were given two i.v. injections with RDZ-218, NP-Dox or Free Dox. Mice were sacrificed about 24 h after the last injection and tissues were isolated and immediately analyzed by fluorescence microscopy to detect distribution of doxorubicin; see FIG. 2d. Tissue sections were also stained with DAPI to visualize cell nuclei; n=2 mice per group; scale bars, 100 μm.

[1] = format: in vivo; settings: 5 mg/kg doxorubicin i.v.
Experimental: The dose of doxorubicin for all groups was 5 mg/kg.
Female BALB/c mice were injected orthotopically with 4TO7 breast tumor cells. Tumors were allowed to establish and reach a size of approximately 500 mm^3 prior to treatment. […] Doxorubicin was administered at about 5 mg/kg in 200 μl of PBS for all groups; n=5 mice per group.

Row | Compound | primary tumor growth (4TO7 tumors) | dose required for effective Stat3 inhibition (STAT-3) [nmol/L] | doxorubicin fluorescence in tumors (4TO7 orthotopic tumors) | number of mice surviving, out of a total of 5 ([1]; after treatment 0) | number of mice surviving, out of a total of 5 ([1]; after treatment 1, 24-hour intervals)
1 | CC1(C)CC[C@]2(C(=O)n3ccnc3)CC[C@]3(C)[C@H](C(=O)C=C4[C@@]5(C)C=C(C#N)C(=O)C(C)(C)[C@@H]5CC[C@]43C)[C@@H]2C1 [CDDO-Im, 1-[2-cyano-3-,12-dioxooleana-1,9(11)-dien-28-oyl]imidazole] | markedly less effective | 100 | – | – | –
2 | COc1cccc2c1C(=O)c1c(O)c3c(c(O)c1C2=O)C[C@@](O)(C(=O)CO)C[C@@H]3O[C@H]1C[C@H](N)[C@H](O)[C@H](C)O1 [Free Dox, doxorubicin] | – | – | strikingly reduced or punctate | 5/5 | 0/5
